# Laboratory results from paper PMC11982498 (Redox Biology, 2025).
# Columns and labels:
# [1] = system: bio-BCL-2 (BCL-2 IM) (DNA, i motif) CAGCCCCGCTCCCGCCCCCTTCCTCCCGCGCCCGCCCCT; test: SPR; settings: K+ 100 mM; 20 mM MES, pH 5.5, 25 °C
# [2] = target: BCL-2 gene promoter i-motif; test: SPR binding to BCL-2 promoter i-motif; settings: MES buffer pH 5.5, 25 °C
# Protocol: SPR measurement was performed on a ProteOn XPR36 protein interaction array system (Bio-Rad Laboratories, Hercules, California, USA) using a Neutravidin-coated GLH sensor chip. BCL-2 i-motif binding analysis was performed following a published method without significant modification. For immobilization, 5′-biotin-labeled DNA oligomers at 800 nM annealed in 1 × MES buffer at pH 5.5 by heating at 95 °C for 5 min, were attached to a reptavidin-coated sensor chip. Compounds were prepared through serial dilution with flowing buffer (20 mM MES, 100 mM KCl, pH 5.5 for i-motif) in at least 6 concentrations, which were simultaneously injected at a flow rate of […] for a 120 s of association phase, followed by 250 s of dissociation phase at 25 °C. Langmuir model was used for fitting kinetic data, which was analyzed with ProteOn manager software. KD values were determined through equation KD = kd/ka. Compound A22 was used as a positive control, and other compounds were selected as candidates only if their KD values for binding to BCL-2 i-motif were similar to that of A22.
# Aβ1-42 [3] = target: T1, Aβ1-42 (Homo sapiens, UniProt P05067); test: Thioflavine T fluorescence spectroscopy assay (time course to 96 h); assay type: biochemical; settings: 20 μM compound, Aβ1-42 incubated for 96 h
# T1 construct: Aβ1-42 was purchased from Gill Biochemicals Ltd (Shanghai, China); purchased Gill Biochemicals Ltd (Shanghai, China)
# Protocol: (§1) The Aβ1-42 solutions (100 μM) were co-incubated with B14 (20 μM) or Curcumin (20 μM) at 37 °C protected from light for 96 h. 30 μL of Aβ1-42 solution was taken at different time points (0 h, 10 h, 24 h, 48 h, 72 h, 96 h), mixed fully with 400 μL of ThT solution (15 μM), and incubated in the dark for 30 min. The fluorescence signal was recorded by using a Cary Eclipse fluorescence spectrophotometer (Varian, USA) with the following setting: excitation wavelength at 440 nm, emission wavelength at 480 nm, and slit width of 20 nm.
# as §1, with “μM) and” for “μM) or”, “Aβ1-42 solutions were” for “Aβ1-42 solution was”, “by” for “by using”, “with” for “with the following setting:”
# Aβ1-42 [4] = target: T1, Aβ1-42; test: Dot blot of Aβ1-42 fibril aggregation; assay type: biochemical; settings: 20 μM compound, 24 h
# Protocol: After incubation at 37 °C for 24 h, 10 μL aliquots of 20 μM Aβ1-42 reaction mixtures were spotted onto nitrocellulose membranes. Membranes were blocked for 2 h with 5 % non-fat milk in TBS. After washing, membranes were incubated with the anti-Aβ fibril antibody (1:1,000, CST, USA) dissolved in TBS containing 3 % bovine serum albumin (BSA, Beyotime, Jiangsu, China) and 0.01 % Tween-20 (Solarbio, Beijing, China), and developed using an alkaline-phosphatase anti-rabbit secondary antibody (1:5,000, Proteintech, China). The bands were then detected using an enhanced chemiluminescence (ECL) kit (Millipore, USA).
# After incubation at 37 °C for 24h, 10 μL aliquots of 20 μM Aβ1-42 reactions were spotted onto nitrocellulose membranes. The membranes were blocked for 2 h with 5% non-fat milk in TBS. After washing, the membranes were incubated with the anti-Aβ fibril antibody (1:1000 dilution) dissolved in TBS containing 3% BSA and 0.01% Tween-20, and then developed using an alkaline-phosphatase antirabbit secondary antibody (1:5000 dilution). Invitrogen's Western Breeze Chemiluminescent kit was used to visualize the protein dots, and these dots were imaged using a FUJIFILM Luminescent Image Analyzer LAS-1000CH.
# Aβ1-42 [5] = target: T1, Aβ1-42; test: Congo red binding assay; assay type: biochemical; settings: 20 μM compound, 72 h
# Protocol: (§2) A total of 30 μM Congo red (Aladdin, Shanghai, China) solution (20 mM potassium phosphate, 50 mM NaCl, pH 7.4) was prepared and filtered with a 0.45 μm filter. The Aβ1-42 solutions (30 μM) were co-incubated with B14 (20 μM), A22 (20 μM), or Curcumin (20 μM) at 37 °C protected from light for 72h. The Aβ1-42 solution was mixed with equal volume of Congo red solution, followed by incubation for 30 min. A spectral region from 400 nm to 650 nm was measured by using a UV–vis spectrophotometer (AoE, China).
# as §2, with “red” for “red (Aladdin, Shanghai, China)”, “μM) and” for “μM), A22 (20 μM), or”, “solution and incubated” for “solution, followed by incubation”, “analyzed” for “measured”, “UV-vis” for “UV–vis”
# T1 sequence (P05067 672-713 limits assumed): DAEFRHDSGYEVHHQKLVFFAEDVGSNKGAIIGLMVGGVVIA
KD [1],Kd [2],Compound,also measured
> 50 µM,–,CC1CCN(CCC(=O)Nc2ccc3c(c2)c(=O)c2ccccc2n3-c2ccc3occc3c2)CC1,–
> 50 µM,–,CCN(CC)CCC(=O)Nc1ccc2c(c1)c(=O)c1ccccc1n2-c1ccc2occc2c1,–
> 50 µM,–,CN(C)CCC(=O)Nc1ccc2c(c1)c(=O)c1ccccc1n2-c1ccc2occc2c1,–
> 50 µM,–,CN1CCN(CCC(=O)Nc2ccc3c(c2)c(=O)c2ccccc2n3-c2ccc3occc3c2)CC1,–
> 50 µM,–,CN1CCN(CCCNc2ccc3c(c2)c(=O)c2cc(NCCCN4CCN(C)CC4)ccc2n3-c2ccc3occc3c2)CC1,–
–,> 50 µM,CCN(CC)CCCNc1ccc2c(c1)c(=O)c1ccccc1n2-c1ccc2occc2c1 [Compound A1],–
> 50 µM,> 50 µM,CN(C)CCCNc1ccc2c(c1)c(=O)c1ccccc1n2-c1ccc2occc2c1 [Compound A2],–
> 50 µM,> 50 µM,O=c1c2ccccc2n(-c2ccc3occc3c2)c2ccc(NCCN3CCNCC3)cc12 [Compound A3],–
> 50 µM,> 50 µM,CN1CCN(CCCNc2ccc3c(c2)c(=O)c2ccccc2n3-c2ccc3occc3c2)CC1 [Compound A4],–
> 50 µM,> 50 µM,O=c1c2ccccc2n(-c2ccc3occc3c2)c2ccc(NCCCN3CCOCC3)cc12 [Compound A5],–
> 50 µM,> 50 µM,O=c1c2ccccc2n(-c2ccc3occc3c2)c2ccc(NCCN3CCOCC3)cc12 [Compound A6],–
> 50 µM,> 50 µM,O=c1c2ccccc2n(-c2ccc3occc3c2)c2ccc(NCCCN3CCCC3)cc12 [Compound A7],–
> 50 µM,> 50 µM,CN(C)CCNc1ccc2c(c1)c(=O)c1ccccc1n2-c1ccc2occc2c1 [Compound A8],–
34.1 µM,34.1 µM,CCN(CC)CCNc1ccc2c(c1)c(=O)c1ccccc1n2-c1ccc2occc2c1 [Compound A9],–
> 50 µM,> 50 µM,O=c1c2ccccc2n(-c2ccc3occc3c2)c2ccc(NCCc3ccccn3)cc12 [Compound A10],–
> 50 µM,> 50 µM,O=C(CCCN1CCOCC1)Nc1ccc2c(c1)c(=O)c1ccccc1n2-c1ccc2occc2c1 [Compound A11],–
–,> 50 µM,CC1CCN(C=CC(=O)Nc2ccc3c(c2)c(=O)c2ccccc2n3-c2ccc3occc3c2)CC1 [Compound A12],–
–,> 50 µM,CCN(C=CC(=O)Nc1ccc2c(c1)c(=O)c1ccccc1n2-c1ccc2occc2c1)CC [Compound A13],–

KD [1],Kd [2],Compound,also measured
–,> 50 µM,CN(C)C=CC(=O)Nc1ccc2c(c1)c(=O)c1ccccc1n2-c1ccc2occc2c1 [Compound A14],–
–,> 50 µM,CN1CCN(C=CC(=O)Nc2ccc3c(c2)c(=O)c2ccccc2n3-c2ccc3occc3c2)CC1 [Compound A15],–
–,> 50 µM,O=C(CCN1CCOCC1)Nc1ccc2c(c1)c(=O)c1ccccc1n2-c1ccc2occc2c1 [Compound A16],–
–,> 50 µM,CCN(CC)CCCNc1ccc2c(c1)c(=O)c1cc(NCCCN(CC)CC)ccc1n2-c1ccc2occc2c1 [Compound B1],–
> 50 µM,> 50 µM,CN(C)CCCNc1ccc2c(c1)c(=O)c1cc(NCCCN(C)C)ccc1n2-c1ccc2occc2c1 [Compound B2],–
> 50 µM,> 50 µM,O=c1c2cc(NCCN3CCNCC3)ccc2n(-c2ccc3occc3c2)c2ccc(NCCN3CCNCC3)cc12 [Compound B3],–
–,> 50 µM,CN1CCN(CCCNc2ccc3c(c2)C(=O)c2cc(NCCCN4CCN(C)CC4)ccc2C3c2ccc3occc3c2)CC1 [Compound B4],–
> 50 µM,> 50 µM,O=c1c2cc(NCCCN3CCOCC3)ccc2n(-c2ccc3occc3c2)c2ccc(NCCCN3CCOCC3)cc12 [Compound B5],–
> 50 µM,> 50 µM,O=c1c2cc(NCCN3CCOCC3)ccc2n(-c2ccc3occc3c2)c2ccc(NCCN3CCOCC3)cc12 [Compound B6],–
> 50 µM,> 50 µM,O=c1c2cc(NCCCN3CCCC3)ccc2n(-c2ccc3occc3c2)c2ccc(NCCCN3CCCC3)cc12 [Compound B7],–
> 50 µM,> 50 µM,CN(C)CCNc1ccc2c(c1)c(=O)c1cc(NCCN(C)C)ccc1n2-c1ccc2occc2c1 [Compound B8],–
> 50 µM,> 50 µM,CCN(CC)CCNc1ccc2c(c1)c(=O)c1cc(NCCN(CC)CC)ccc1n2-c1ccc2occc2c1 [Compound B9],–
> 50 µM,> 50 µM,O=c1c2cc(NCCc3ccccn3)ccc2n(-c2ccc3occc3c2)c2ccc(NCCc3ccccn3)cc12 [Compound B10],–
> 50 µM,> 50 µM,O=C(CCCN1CCOCC1)Nc1ccc2c(c1)c(=O)c1cc(NC(=O)CCCN3CCOCC3)ccc1n2-c1ccc2occc2c1 [Compound B11],–
> 50 µM,> 50 µM,O=C(CCN1CCCC1)Nc1ccc2c(c1)c(=O)c1cc(NC(=O)CCN3CCCC3)ccc1n2-c1ccc2occc2c1 [Compound B12],–
> 50 µM,> 50 µM,CCN(CC)CCC(=O)Nc1ccc2c(c1)c(=O)c1cc(NC(=O)CCN(CC)CC)ccc1n2-c1ccc2occc2c1 [Compound B13],–
–,–,"COc1cc(/C=C/C(=O)CC(=O)/C=C/c2ccc(O)c(OC)c2)ccc1O [Curcumin, reference compound]","decrease of ThT fluorescence intensity (Aβ1-42 [3]): 20.83 ± 1.68%; formation of Aβ fibers (dot blot) (Aβ1-42 [4]): relatively less significant effect compared with B14; absorbance of Congo red in the Aβ1-42 sample (Aβ1-42 [5]): some inhibitory effect, but much lower than B14"
